What all share (test): single sensillum recording, transgenic fly at1 neurons
One assay deals with T1, HassOR6 (Helicoverpa assulta, UniProt R4JLZ7).
T1 construct: gene OR6; ORF in pVALIUM20, UAS-OR transgene expressed in Drosophila at1 neurons (Or67dGAL4 knock-in), host endogenous Orco; with Odorant receptor coreceptor (Drosophila melanogaster, endogenous in host neuron)
T1 sequence (R4JLZ7 1-425): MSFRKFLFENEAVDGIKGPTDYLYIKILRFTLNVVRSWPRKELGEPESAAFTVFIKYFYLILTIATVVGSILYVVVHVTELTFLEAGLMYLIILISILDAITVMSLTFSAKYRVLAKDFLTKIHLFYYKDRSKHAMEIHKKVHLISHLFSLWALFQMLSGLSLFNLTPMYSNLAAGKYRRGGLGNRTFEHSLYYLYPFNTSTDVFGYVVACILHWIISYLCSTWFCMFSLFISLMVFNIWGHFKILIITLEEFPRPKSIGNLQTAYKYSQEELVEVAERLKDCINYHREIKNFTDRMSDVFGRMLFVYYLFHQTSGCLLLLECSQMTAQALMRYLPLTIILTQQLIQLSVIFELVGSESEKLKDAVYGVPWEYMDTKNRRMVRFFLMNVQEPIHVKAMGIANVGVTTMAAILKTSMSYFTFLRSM
T1 sequence (Q9VNB5 1-486 partner): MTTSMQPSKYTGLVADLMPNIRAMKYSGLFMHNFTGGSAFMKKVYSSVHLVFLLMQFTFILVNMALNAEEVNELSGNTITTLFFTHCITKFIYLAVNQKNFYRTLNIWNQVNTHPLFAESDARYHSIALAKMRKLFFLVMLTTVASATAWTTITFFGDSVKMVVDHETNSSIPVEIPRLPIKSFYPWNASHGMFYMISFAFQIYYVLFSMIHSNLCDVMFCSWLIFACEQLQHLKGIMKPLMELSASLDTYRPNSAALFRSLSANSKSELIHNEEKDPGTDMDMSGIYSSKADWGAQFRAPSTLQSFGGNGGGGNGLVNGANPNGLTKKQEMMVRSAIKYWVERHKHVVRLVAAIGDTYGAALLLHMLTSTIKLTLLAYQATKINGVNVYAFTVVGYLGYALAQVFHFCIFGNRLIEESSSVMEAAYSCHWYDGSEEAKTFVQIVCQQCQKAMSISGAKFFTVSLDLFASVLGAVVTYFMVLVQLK
The settings on record: agonist; mass loaded on filter paper in stimulus cartridge (10 μL in paraffin oil), 300 ms pulse; not a molar concentration.

Another assay has as its target T2, HarmOR6 (Helicoverpa armigera, UniProt R4JSE3).
T2 construct: gene OR6; ORF in pVALIUM20, UAS-OR transgene expressed in Drosophila at1 neurons (Or67dGAL4 knock-in), host endogenous Orco; with Odorant receptor coreceptor (Drosophila melanogaster, endogenous in host neuron)
T2 sequence (R4JSE3 1-425): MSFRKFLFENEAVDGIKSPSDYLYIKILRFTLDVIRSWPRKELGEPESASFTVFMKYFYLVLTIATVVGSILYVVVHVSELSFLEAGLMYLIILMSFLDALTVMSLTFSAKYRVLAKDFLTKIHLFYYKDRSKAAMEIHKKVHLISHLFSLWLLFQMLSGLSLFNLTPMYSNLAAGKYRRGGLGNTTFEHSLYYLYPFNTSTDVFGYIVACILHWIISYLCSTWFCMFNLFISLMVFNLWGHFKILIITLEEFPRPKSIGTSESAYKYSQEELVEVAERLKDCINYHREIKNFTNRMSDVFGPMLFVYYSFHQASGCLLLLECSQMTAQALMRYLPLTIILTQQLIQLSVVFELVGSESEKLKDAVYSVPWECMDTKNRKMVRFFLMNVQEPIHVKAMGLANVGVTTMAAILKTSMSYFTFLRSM
T2 sequence (Q9VNB5 1-486 partner): T1 sequence (Q9VNB5 1-486 partner)
Particulars: agonist; mass loaded on filter paper in stimulus cartridge (10 μL in paraffin oil), 300 ms pulse; not a molar concentration.

For a further assay, the system named is T3, HvirOR6.
T3 construct: gene OR6; ORF in pVALIUM20, UAS-OR transgene expressed in Drosophila at1 neurons (Or67dGAL4 knock-in), host endogenous Orco; with Odorant receptor coreceptor (Drosophila melanogaster, endogenous in host neuron)
Further details: species or system Heliothis virescens. Particulars: agonist; mass loaded on filter paper in stimulus cartridge (10 μL in paraffin oil), 300 ms pulse; not a molar concentration.

Another assay has as its target T4, HarmOR13 (Helicoverpa armigera, UniProt A0A075TD52).
T4 construct: gene OR13; ORF in pVALIUM20, UAS-OR transgene expressed in Drosophila at1 neurons (Or67dGAL4 knock-in), host endogenous Orco; with Odorant receptor coreceptor (Drosophila melanogaster, endogenous in host neuron)
T4 sequence (A0A075TD52 1-425): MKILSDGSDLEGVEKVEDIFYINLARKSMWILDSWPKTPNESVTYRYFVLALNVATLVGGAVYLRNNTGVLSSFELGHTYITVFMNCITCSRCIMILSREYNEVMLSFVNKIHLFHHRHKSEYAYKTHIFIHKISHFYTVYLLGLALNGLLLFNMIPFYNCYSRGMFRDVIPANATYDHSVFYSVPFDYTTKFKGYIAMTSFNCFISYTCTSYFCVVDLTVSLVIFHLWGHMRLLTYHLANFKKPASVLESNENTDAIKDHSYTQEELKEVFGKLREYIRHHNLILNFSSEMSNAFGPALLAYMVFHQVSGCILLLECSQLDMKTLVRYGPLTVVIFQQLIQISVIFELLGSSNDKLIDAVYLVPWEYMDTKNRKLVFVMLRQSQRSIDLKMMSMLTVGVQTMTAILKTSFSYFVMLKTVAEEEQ
T4 sequence (Q9VNB5 1-486 partner): T1 sequence (Q9VNB5 1-486 partner)
The settings on record: agonist; mass loaded on filter paper in stimulus cartridge (10 μL in paraffin oil), 300 ms pulse; not a molar concentration.

Another assay deals with T5, HassOR13 (Helicoverpa assulta, UniProt A0A0B4ZYC6).
T5 construct: gene OR13; ORF in pVALIUM20, UAS-OR transgene expressed in Drosophila at1 neurons (Or67dGAL4 knock-in), host endogenous Orco; with Odorant receptor coreceptor (Drosophila melanogaster, endogenous in host neuron)
T5 sequence (A0A0B4ZYC6 1-425): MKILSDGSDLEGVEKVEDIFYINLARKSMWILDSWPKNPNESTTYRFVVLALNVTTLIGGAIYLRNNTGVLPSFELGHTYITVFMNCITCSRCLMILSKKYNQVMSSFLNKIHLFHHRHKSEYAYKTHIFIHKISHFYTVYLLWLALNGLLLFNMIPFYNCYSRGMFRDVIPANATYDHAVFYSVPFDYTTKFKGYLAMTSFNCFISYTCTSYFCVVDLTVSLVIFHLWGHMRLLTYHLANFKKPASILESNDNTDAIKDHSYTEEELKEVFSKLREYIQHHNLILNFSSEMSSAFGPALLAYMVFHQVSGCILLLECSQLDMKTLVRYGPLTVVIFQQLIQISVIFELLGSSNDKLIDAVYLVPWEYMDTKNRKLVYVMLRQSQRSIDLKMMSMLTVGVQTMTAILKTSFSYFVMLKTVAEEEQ
T5 sequence (Q9VNB5 1-486 partner): T1 sequence (Q9VNB5 1-486 partner)
The settings on record: agonist; mass loaded on filter paper in stimulus cartridge (10 μL in paraffin oil), 300 ms pulse; not a molar concentration.

The next assay concerns T6, HvirOR13.
T6 construct: gene OR13; ORF in pVALIUM20, UAS-OR transgene expressed in Drosophila at1 neurons (Or67dGAL4 knock-in), host endogenous Orco; with Odorant receptor coreceptor (Drosophila melanogaster, endogenous in host neuron)
Also on record: species or system Heliothis virescens. The settings on record: agonist; mass loaded on filter paper in stimulus cartridge (10 μL in paraffin oil), 300 ms pulse; not a molar concentration.

Assay [1] has as its target T7, HarmOR16 (Helicoverpa armigera, UniProt A0A7D5JJ30).
T7 construct: ORF in pVALIUM20, UAS-OR transgene expressed in Drosophila at1 neurons (Or67dGAL4 knock-in), host endogenous Orco; with Odorant receptor coreceptor (Drosophila melanogaster, endogenous in host neuron)
T7 sequence (A0A7D5JJ30 1-422): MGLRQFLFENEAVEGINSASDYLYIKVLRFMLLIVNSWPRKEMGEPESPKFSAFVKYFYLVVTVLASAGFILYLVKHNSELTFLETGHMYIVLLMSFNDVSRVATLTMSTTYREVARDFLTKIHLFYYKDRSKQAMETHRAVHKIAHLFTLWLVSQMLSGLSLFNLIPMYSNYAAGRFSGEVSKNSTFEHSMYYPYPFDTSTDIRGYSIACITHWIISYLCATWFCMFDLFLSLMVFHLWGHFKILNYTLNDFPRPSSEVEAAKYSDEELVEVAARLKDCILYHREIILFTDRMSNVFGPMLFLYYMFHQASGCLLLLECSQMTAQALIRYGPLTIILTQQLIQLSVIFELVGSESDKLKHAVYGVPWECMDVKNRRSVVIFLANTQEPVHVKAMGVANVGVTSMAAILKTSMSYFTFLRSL
T7 sequence (Q9VNB5 1-486 partner): T1 sequence (Q9VNB5 1-486 partner)
Particulars: agonist; mass loaded on filter paper in stimulus cartridge (10 μL in paraffin oil), 300 ms pulse; not a molar concentration.

The next assay relates to T8, HvirOR16.
T8 construct: gene OR16; ORF in pVALIUM20, UAS-OR transgene expressed in Drosophila at1 neurons (Or67dGAL4 knock-in), host endogenous Orco; with Odorant receptor coreceptor (Drosophila melanogaster, endogenous in host neuron)
Also on record: species or system Heliothis virescens. The settings on record: agonist; mass loaded on filter paper in stimulus cartridge (10 μL in paraffin oil), 300 ms pulse; not a molar concentration.

The target of assay [2] is T7, HarmOR16. In kind it is cell-based. The settings on record: agonist; odorant on filter paper in stimulus cartridge, 300 ms pulse.

As for `CCCCCC/C=C\CCCCCCCCO` [Z9-16:OH, (Z)-9-hexadecenol], the EC50 came to 5.99e-05 g at HassOR6 and 5.84e-05 g at HarmOR6.

For `CCCC/C=C\CCCCCCCCO` [Z9-14:OH], the EC50 was 0.000126 g with HvirOR6, 9.66e-05 g on HassOR6 and 3.85e-05 g at HarmOR6.

On to `CCCC/C=C\CCCCCCCCCC=O` [Z11-16:Ald, (Z)-11-hexadecenal], for which the values for the EC50 at HarmOR13, on HassOR13 and in the assay with HvirOR13 were 0.000213 g, 0.000242 g and 0.000216 g, respectively.

With `CCCC/C=C\CCCCCCCCCCO` [Z11-16:OH, (Z)-11-hexadecenol], the EC50 turned out to be 7.94e-05 g at HarmOR16 [1] and 3.89e-05 g with HvirOR16.

With `CCCC/C=C\CCCCCCCC=O` [Z9-14:Ald, (Z)-9-tetradecenal], the EC50 with HvirOR6 was 2.75e-05 g; on HarmOR16 [1], 0.00126 g.

Consider `CCCC/C=C\CCCCCCCCCCOC(C)=O` [Z11-16:OAc, (Z)-11-hexadecenyl acetate], for which, in the assay with HvirOR16, the EC50 came to 8.88e-05 g. The “single sensillum recording, transgenic fly at1 neurons” value at HarmOR16 [2] was “responded to the sex pheromone components Z9-14:Ald, Z11-16:OH, and Z11-16:OAc”.

The values above are taken from article PMC6125646, “Proceeding From in vivo Functions of Pheromone Receptors: Peripheral-Coding Perception of Pheromones From Three Closely Related Species, Helicoverpa armigera, H. assulta, and Heliothis virescens” (Frontiers in Physiology, 2018).
